Measured values taken from ChEMBL document CHEMBL3885881, “DrugMatrix”.

Species: Rattus norvegicus
Test: DrugMatrix - Regimen: Daily Repeat
Type: toxicity, organism-based, Sprague-Dawley
Design: regimen Daily Repeat, gender Male, age 6-8 weeks
Conditions: in vivo, po, route oral GAVAGE, vehicle .5 % CMC; for ABSOLUTE BASOPHIL / ABSOLUTE EOSINOPHIL / ABSOLUTE LYMPHOCYTE / ABSOLUTE MONOCYTE / ABSOLUTE SEGMENTED NEUTROPHIL / BASOPHIL / EOSINOPHIL / ERYTHROCYTE COUNT / HEMATOCRIT / HEMOGLOBIN / LEUKOCYTE COUNT / LYMPHOCYTE / MEAN CORPUSCULAR HEMOGLOBIN / MEAN CORPUSCULAR HEMOGLOBIN CONCENTRATION / MEAN CORPUSCULAR VOLUME / MONOCYTE / NEUTROPHIL / NUCLEATED RED BLOOD CELLS / PLATELET COUNT: tissue Blood; for ALANINE AMINOTRANSFERASE / ALBUMIN / ALKALINE PHOSPHATASE / ASPARTATE AMINOTRANSFERASE / BLOOD UREA NITROGEN / CARBON DIOXIDE / CHLORIDE / CHOLESTEROL / CREATINE PHOSPHOKINASE / CREATININE / GLUCOSE / LACTATE DEHYDROGENASE / LIPASE / PHOSPHORUS / POTASSIUM / SODIUM / TOTAL BILIRUBIN / TOTAL PROTEIN / URIC ACID: tissue Plasma
[1] = 100 mg/kg, 120 h, dose level Low, time 5 day
[2] = 2000 mg/kg, 72 h, dose level High, time 3 day
[3] = 2000 mg/kg, 120 h, dose level High, time 5 day

Question: Which “ABSOLUTE BASOPHIL” value [1] does the source give for `CN/C(=N/CCSCc1nc[nH]c1C)NC#N` [CIMETIDINE] here?
Answer: 0 CELLS/uL

Question: What about the “ABSOLUTE EOSINOPHIL” value [1] of the same compound?
Answer: 36.33 CELLS/uL

Question: What about the “ABSOLUTE LYMPHOCYTE” value [1] of the same compound?
Answer: 10440.33 CELLS/uL

Question: And the “ABSOLUTE MONOCYTE” value [1]?
Answer: 206 CELLS/uL

Question: And the “ABSOLUTE SEGMENTED NEUTROPHIL” value [1]?
Answer: 1017.33 CELLS/uL

Question: And the BASOPHIL [1]?
Answer: 0%

Question: And the EOSINOPHIL [1]?
Answer: 0.33%

Question: And the “ERYTHROCYTE COUNT” value [1]?
Answer: 5.58 x10E6/uL

Question: And the HEMATOCRIT [1]?
Answer: 34.03%

Question: What about the HEMOGLOBIN [1] of the same compound?
Answer: 13.43 G/DL

Question: What about the “LEUKOCYTE COUNT” value [1] of the same compound?
Answer: 11.7 x10E3/uL

Question: What about the LYMPHOCYTE [1] of the same compound?
Answer: 89.33%

Question: And the “MEAN CORPUSCULAR HEMOGLOBIN” value [1]?
Answer: 24.07 pg

Question: And the “MEAN CORPUSCULAR HEMOGLOBIN CONCENTRATION” value [1]?
Answer: 39.47 G/DL

Question: What about the “MEAN CORPUSCULAR VOLUME” value [1] of the same compound?
Answer: 61 fL

Question: And the MONOCYTE [1]?
Answer: 1.67%

Question: And the NEUTROPHIL [1]?
Answer: 8.67%

Question: And the “NUCLEATED RED BLOOD CELLS” value [1]?
Answer: 0 /100WBC

Question: What about the “PLATELET COUNT” value [1] of the same compound?
Answer: 685.33 x10E3/uL

Question: And the “ALANINE AMINOTRANSFERASE” value [1]?
Answer: 61.33 u/L

Question: And the ALBUMIN [1]?
Answer: 4.23 G/DL

Question: What about the “ALKALINE PHOSPHATASE” value [1] of the same compound?
Answer: 391.33 u/L

Question: What about the “ASPARTATE AMINOTRANSFERASE” value [1] of the same compound?
Answer: 101.67 u/L

Question: What about the “BLOOD UREA NITROGEN” value [1] of the same compound?
Answer: 15.33 mg/dL

Question: And the “CARBON DIOXIDE” value [1]?
Answer: 28 mmol/L

Question: What about the CHLORIDE [1] of the same compound?
Answer: 101 MEQ/L

Question: And the CHOLESTEROL [1]?
Answer: 69 mg/dL

Question: And the “CREATINE PHOSPHOKINASE” value [1]?
Answer: 711.67 u/L

Question: What about the CREATININE [1] of the same compound?
Answer: 0.18 mg/dL

Question: What about the GLUCOSE [1] of the same compound?
Answer: 163 mg/dL

Question: What about the “LACTATE DEHYDROGENASE” value [1] of the same compound?
Answer: 293 u/L

Question: And the LIPASE [1]?
Answer: 10.33 u/L

Question: And the PHOSPHORUS [1]?
Answer: 11.6 mg/dL

Question: What about the POTASSIUM [1] of the same compound?
Answer: 6.16 MEQ/L

Question: And the SODIUM [1]?
Answer: 141.5 MEQ/L

Question: And the “TOTAL BILIRUBIN” value [1]?
Answer: 0.2 mg/dL

Question: What about the “TOTAL PROTEIN” value [1] of the same compound?
Answer: 5.97 G/DL

Question: And the “URIC ACID” value [1]?
Answer: 1.67 mg/dL

Question: What about the “ABSOLUTE BASOPHIL” value [2] of the same compound?
Answer: 0 CELLS/uL

Question: And the “ABSOLUTE EOSINOPHIL” value [2]?
Answer: 50 CELLS/uL

Question: What about the “ABSOLUTE LYMPHOCYTE” value [2] of the same compound?
Answer: 13681 CELLS/uL

Question: And the “ABSOLUTE MONOCYTE” value [2]?
Answer: 50 CELLS/uL

Question: What about the “ABSOLUTE SEGMENTED NEUTROPHIL” value [2] of the same compound?
Answer: 2252.33 CELLS/uL

Question: What about the BASOPHIL [2] of the same compound?
Answer: 0%

Question: And the EOSINOPHIL [2]?
Answer: 0.33%

Question: And the “ERYTHROCYTE COUNT” value [2]?
Answer: 5.85 x10E6/uL

Question: What about the HEMATOCRIT [2] of the same compound?
Answer: 36.93%

Question: What about the HEMOGLOBIN [2] of the same compound?
Answer: 14.33 G/DL

Question: And the “LEUKOCYTE COUNT” value [2]?
Answer: 16.03 x10E3/uL

Question: What about the LYMPHOCYTE [2] of the same compound?
Answer: 84.33%

Question: And the “MEAN CORPUSCULAR HEMOGLOBIN” value [2]?
Answer: 24.5 pg

Question: And the “MEAN CORPUSCULAR HEMOGLOBIN CONCENTRATION” value [2]?
Answer: 38.8 G/DL

Question: And the “MEAN CORPUSCULAR VOLUME” value [2]?
Answer: 63.17 fL

Question: What about the MONOCYTE [2] of the same compound?
Answer: 0.33%

Question: What about the NEUTROPHIL [2] of the same compound?
Answer: 15%

Question: What about the “NUCLEATED RED BLOOD CELLS” value [2] of the same compound?
Answer: 0.33 /100WBC

Question: What about the “PLATELET COUNT” value [2] of the same compound?
Answer: 1342.33 x10E3/uL

Question: And the “ALANINE AMINOTRANSFERASE” value [2]?
Answer: 56 u/L

Question: What about the ALBUMIN [2] of the same compound?
Answer: 4.13 G/DL

Question: What about the “ALKALINE PHOSPHATASE” value [2] of the same compound?
Answer: 392.67 u/L

Question: And the “ASPARTATE AMINOTRANSFERASE” value [2]?
Answer: 83.33 u/L

Question: What about the “BLOOD UREA NITROGEN” value [2] of the same compound?
Answer: 18 mg/dL

Question: What about the “CARBON DIOXIDE” value [2] of the same compound?
Answer: 32.33 mmol/L

Question: What about the CHLORIDE [2] of the same compound?
Answer: 98.33 MEQ/L

Question: What about the CHOLESTEROL [2] of the same compound?
Answer: 86.67 mg/dL

Question: And the “CREATINE PHOSPHOKINASE” value [2]?
Answer: 295 u/L

Question: What about the CREATININE [2] of the same compound?
Answer: 0.24 mg/dL

Question: And the GLUCOSE [2]?
Answer: 145.67 mg/dL

Question: What about the “LACTATE DEHYDROGENASE” value [2] of the same compound?
Answer: 334.33 u/L

Question: What about the LIPASE [2] of the same compound?
Answer: 17 u/L

Question: And the PHOSPHORUS [2]?
Answer: 11.87 mg/dL

Question: What about the POTASSIUM [2] of the same compound?
Answer: 7.13 MEQ/L

Question: What about the SODIUM [2] of the same compound?
Answer: 141.97 MEQ/L

Question: What about the “TOTAL BILIRUBIN” value [2] of the same compound?
Answer: 0.17 mg/dL

Question: And the “TOTAL PROTEIN” value [2]?
Answer: 5.67 G/DL

Question: What about the “URIC ACID” value [2] of the same compound?
Answer: 1.5 mg/dL

Question: What about the “ABSOLUTE BASOPHIL” value [3] of the same compound?
Answer: 0 CELLS/uL

Question: And the “ABSOLUTE EOSINOPHIL” value [3]?
Answer: 104.67 CELLS/uL

Question: And the “ABSOLUTE LYMPHOCYTE” value [3]?
Answer: 19446 CELLS/uL

Question: And the “ABSOLUTE MONOCYTE” value [3]?
Answer: 531.33 CELLS/uL

Question: What about the “ABSOLUTE SEGMENTED NEUTROPHIL” value [3] of the same compound?
Answer: 1118 CELLS/uL

Question: What about the BASOPHIL [3] of the same compound?
Answer: 0%

Question: And the EOSINOPHIL [3]?
Answer: 0.67%

Question: And the “ERYTHROCYTE COUNT” value [3]?
Answer: 5.6 x10E6/uL

Question: What about the HEMATOCRIT [3] of the same compound?
Answer: 34.37%

Question: And the HEMOGLOBIN [3]?
Answer: 14 G/DL

Question: What about the “LEUKOCYTE COUNT” value [3] of the same compound?
Answer: 21.2 x10E3/uL

Question: What about the LYMPHOCYTE [3] of the same compound?
Answer: 91.33%

Question: What about the “MEAN CORPUSCULAR HEMOGLOBIN” value [3] of the same compound?
Answer: 25.03 pg

Question: What about the “MEAN CORPUSCULAR HEMOGLOBIN CONCENTRATION” value [3] of the same compound?
Answer: 40.77 G/DL

Question: What about the “MEAN CORPUSCULAR VOLUME” value [3] of the same compound?
Answer: 61.33 fL

Question: What about the MONOCYTE [3] of the same compound?
Answer: 2.33%

Question: What about the NEUTROPHIL [3] of the same compound?
Answer: 5.67%

Question: What about the “NUCLEATED RED BLOOD CELLS” value [3] of the same compound?
Answer: 0 /100WBC

Question: And the “PLATELET COUNT” value [3]?
Answer: 1356.67 x10E3/uL

Question: And the “ALANINE AMINOTRANSFERASE” value [3]?
Answer: 58 u/L

Question: What about the ALBUMIN [3] of the same compound?
Answer: 4.07 G/DL

Question: What about the “ALKALINE PHOSPHATASE” value [3] of the same compound?
Answer: 363 u/L

Question: And the “ASPARTATE AMINOTRANSFERASE” value [3]?
Answer: 88.33 u/L

Question: And the “BLOOD UREA NITROGEN” value [3]?
Answer: 19.33 mg/dL

Question: What about the “CARBON DIOXIDE” value [3] of the same compound?
Answer: 25 mmol/L

Question: And the CHLORIDE [3]?
Answer: 100.33 MEQ/L

Question: And the CHOLESTEROL [3]?
Answer: 60 mg/dL

Question: And the “CREATINE PHOSPHOKINASE” value [3]?
Answer: 520.33 u/L

Question: What about the CREATININE [3] of the same compound?
Answer: 0.3 mg/dL

Question: What about the GLUCOSE [3] of the same compound?
Answer: 225 mg/dL

Question: What about the “LACTATE DEHYDROGENASE” value [3] of the same compound?
Answer: 221.33 u/L

Question: What about the LIPASE [3] of the same compound?
Answer: 8 u/L

Question: What about the PHOSPHORUS [3] of the same compound?
Answer: 13.4 mg/dL

Question: And the POTASSIUM [3]?
Answer: 5.31 MEQ/L

Question: What about the SODIUM [3] of the same compound?
Answer: 143.57 MEQ/L

Question: And the “TOTAL BILIRUBIN” value [3]?
Answer: 0.2 mg/dL

Question: And the “TOTAL PROTEIN” value [3]?
Answer: 5.73 G/DL

Question: What about the “URIC ACID” value [3] of the same compound?
Answer: 1.9 mg/dL
